Test results as given in patent publication US20230322805A1, “NOVEL PYRIMIDODIAZEPINE DERIVATIVES OR USES THEREOF” (SPARK BIOPHARMA, INC., priority 2020, published 2023).

Test system: protein synthesis in SH-SY5Y cells
Experiment: Protein synthesis labelling with furomycin in SH-SY5Y cells
Type: cell-based, human
Settings: 10 μM SB1617, with thapsigargin
Experimental: 5-1. […] To assure this, SH-SY5Y cells were treated with 10 μM SB1617 for directed time, and then the newly synthesized protein was labeled with 10 μg/mL furomycin for 10 minutes and visualized by anti-furomycin antibody staining.

## CN(Cc1ccc(Cl)cc1)c1ncnc2c1[C@@H]1OC[C@H](CN2)N1S(=O)(=O)c1ccc([N+](=O)[O-])cc1 [Compound 117]
  inhibition of protein synthesis: enhanced and extended
